Measured values reported in PMC13316043, “Structural basis of NSD2 degradation via targeted recruitment of SCF-FBXO22” (Nature Communications, 2026).

How the values were obtained:
BACH1 = experiment: Western blot of BACH1 in HEK293T cells; format: cell-based, human; conditions: for BACH1 levels by immunoblot: 10 µM, 6 hrs
Protocol: HEK293T and U2OS were obtained from ATCC and cultured in high-glucose-containing Dulbecco’s Modified Eagle’s Medium (DMEM; Gibco; cat. #11995) supplemented with 10% fetal bovine serum (VWR) and 1% penicillin/streptomycin (Gibco). Cells were treated with either UNC10415667, UNC12149, UNC12567, hemin (Sigma; cat. #H9039), or DMSO control for the indicated times and analyzed by western blot using standard procedures. Briefly, cells were lysed on ice for 15 min in NETN lysis buffer (20 mM Tris pH 8.0, 100 mM NaCl, 0.5 mM EDTA, 0.5% NP40) supplemented with 10 µg/mL aprotinin, 10 µg/mL leupeptin, 10 µg/mL pepstatin A, 1 mM sodium orthovanadate, 1 mM sodium fluoride, and 1 mM AEBSF (4-[two aminoethyl] benzenesulfonyl fluoride). Cell lysates were centrifuged at 20,000×g in a benchtop microcentrifuge at 4 °C for 10 min. Protein concentration was determined by Bradford assay (Bio-Rad; cat. #5000006). Protein concentration was normalized using Laemmli buffer. Samples were heated for 5 min at 95°C in a dry water-bath. Samples were separated on TGX stain free gels (Bio-Rad) transferred to nitrocellulose membrane and blocked in 5% non-fat dry milk (Biorad; cat. #1706404) diluted in 1x TBS-T (137 mM NaCl, 2.7 mM KCl, 25 mM Tris pH 7.6, 1% Tween-20). Primary antibody incubations (Anti-NSD2 (Abcam; Cat# ab75359; Lot# 1093214-1; 1:1000 dilution), Anti-BACH1 (Fortis Life Sciences; Cat# A303-805A; Lot# 1; 1:1000 dilution), and Anti-GAPDH (Santa Cruz Biotechnology; Cat# sc-47724; Lot# C1023; 1:1000 dilution)) were performed overnight at 4 °C. Secondary antibodies (Peroxidase AffiniPure Goat Anti-Rabbit IgG (H + L) (Jackson Immuno; Cat# 111-035-003; 1:5000 dilution) and Peroxidase AffiniPure Goat Anti-Mouse IgG (H + L) (Jackson Immuno; Cat# 115-035-003; 1:5000 dilution)) were incubated for 1 h at room temperature. Blots were developed by chemiluminescence using Pierce ECL (Thermo Fisher Scientific; cat. #32106).

[1] = molecular target: T1, *NSD2 PWWP1 ubiquitination by SCF^FBXO22 (Homo sapiens, UniProt O96028+Q8NEZ5); experiment: Ubiquitination assay using purified components; format: biochemical; conditions: for SCF^FBXO22-dependent ubiquitination of *NSD2 PWWP1: compound at 0.5 µM, fluorescent SDS-PAGE; for hook effect upon titration in ubiquitination assay: compound titration
T1 construct: fluorescently labeled NSD2-PWWP1 (*NSD2-PWWP1); the FIST domain of FBXO22 rather than full-length FBXO22 that is used in the ubiquitination; 6xHis (N, cleaved yes); GST (cleaved yes); made in house; host or cells: SKP1-FBXO22: Trichoplusia ni insect cells; NSD2 PWWP1 and NEDD8: E. coli BL21(DE3)-CodonPlus RIL
T1 sequence (O96028 222-286 limits assumed): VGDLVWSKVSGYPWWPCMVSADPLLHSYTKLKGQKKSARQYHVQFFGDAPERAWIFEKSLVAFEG
T1 sequence (Q8NEZ5 whole entry, the tested form may be a part): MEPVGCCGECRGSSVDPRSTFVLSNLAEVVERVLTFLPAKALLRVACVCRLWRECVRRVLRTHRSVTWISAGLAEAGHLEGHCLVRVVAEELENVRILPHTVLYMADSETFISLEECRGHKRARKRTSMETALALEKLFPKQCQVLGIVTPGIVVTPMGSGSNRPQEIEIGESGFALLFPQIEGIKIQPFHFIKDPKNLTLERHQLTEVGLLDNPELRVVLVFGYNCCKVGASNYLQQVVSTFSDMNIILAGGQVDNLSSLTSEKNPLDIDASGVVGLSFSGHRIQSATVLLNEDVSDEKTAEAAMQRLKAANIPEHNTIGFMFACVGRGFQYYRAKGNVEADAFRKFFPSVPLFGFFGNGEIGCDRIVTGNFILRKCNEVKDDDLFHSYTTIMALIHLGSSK
Protocol: Ubiquitination assays were performed by mixing 2 separate solutions. First, SKP1-FBXO22, fluorescently labeled NSD2-PWWP1 (*NSD2-PWWP1), and compounds, unless otherwise indicated, were pre-incubated for 15 min on ice. Second, UBA1, UBE2R2, UBE2D2 or UBE2L3 and ARIH1, NEDD8 ~ CUL1-RBX1, MgATP, and reaction buffer (20 mM HEPES pH 8, 200 mM NaCl, 0.5 mg/mL bovine serum albumin (BSA)) were combined on ice to generate a master mix. A standard volume of master mix was added to each reaction tube, and Ub was added to initiate the ubiquitination reaction containing 100µM Ub, 1µM SKP1-FBXO22, 0.5µM *NSD2 PWWP1, 0.5µM compound, 0.1µM UBA1, 1µM UBE2R2, 1µM UBE2D2 or 1µM UBE2L3, and 1µM ARIH1, 1µM NEDD8~CUL1-RBX1, and 5mM MgATP in reaction buffer. Ubiquitination assays comparing *NSD2 PWWP1 mutants were performed similarly, except that SKP1-FBXO22, *NSD2 PWWP1 mutants, and compounds were not incubated separately prior to the start of the reaction. The reactions proceeded at room temperature for 15 min until they were quenched by adding SDS Loading Buffer. The ubiquitinated *NSD2 PWWP1 was visualized by subjecting the reactions to SDS-PAGE and imaging using the Amersham Typhoon.

Structure (SMILES) | BACH1 levels by immunoblot (BACH1) | SCF^FBXO22-dependent ubiquitination of *NSD2 PWWP1 [1] | hook effect upon titration in ubiquitination assay [1] | BACH1 and NSD2 levels upon co-treatment with Hemin (BACH1; 10 µM UNC10415667 and 20 µM Hemin, 6 h)
O=C1COc2cc(C(=O)N(Cc3ccc(C(=O)Nc4ccc5c(c4)CCN(C(=O)CCCCC(O)S(=O)(=O)O)C5)cc3)C3CC3)ccc2N1 (centres unmarked) [UNC10088] | remained constant | promotes ubiquitination | observed hook effect | 
Cc1cc(C=O)ccc1C(=O)N1CCc2cc(NC(=O)c3ccc(CN(C(=O)c4ccc5c(c4)OCC(=O)N5)C4CC4)cc3)ccc2C1 [UNC12149] |  | significant in vitro NSD2 ubiquitination |  | 
O=Cc1ccc(C(=O)N2CCc3cc(NC(=O)c4ccc(CN(C(=O)c5ccc6c(c5)OCC(=O)N6)C5CC5)cc4)ccc3C2)cc1 [UNC10415667] | unchanged | to the same extent as UNC10088 | characteristic hook effect | both BACH1 and NSD2 were degraded
